# Assay results as given in ChEMBL document CHEMBL3046561, “Feeding deterrents from Dictamnus dasycarpus Turcz against two stored-product insects” (J Agric Food Chem, 2002).
# Tests used:
# Tribolium castaneum [1] = test: Antifeedant activity against adult of Tribolium castaneum (red flour beetle) assessed as mortality at 100 ppm after 3 days relative to control; format: functional; settings: 72 h
# Sitophilus zeamais [2] = test: Antifeedant activity against adult of Sitophilus zeamais assessed as mortality at 300 ppm after 3 days relative to control; format: functional; settings: 72 h
# Sitophilus zeamais [3] = test: Antifeedant activity against adult of Sitophilus zeamais assessed as mortality at 100 ppm after 3 days relative to control; format: functional; settings: 72 h
# Tribolium castaneum [4] = test: Antifeedant activity against larvae of Tribolium castaneum (red flour beetle) assessed as mortality at 300 ppm after 3 days relative to control; format: functional; settings: 72 h
# Tribolium castaneum [5] = test: Antifeedant activity against larvae of Tribolium castaneum (red flour beetle) assessed as mortality at 30 ppm after 3 days relative to control; format: functional; settings: 72 h
# Tribolium castaneum [6] = test: Antifeedant activity against larvae of Tribolium castaneum (red flour beetle) assessed as mortality at 3 ppm after 3 days relative to control; format: functional; settings: 72 h
# Tribolium castaneum [7] = test: Antifeedant activity against larvae of Tribolium castaneum (red flour beetle) assessed as mortality at 10 ppm after 3 days relative to control; format: functional; settings: 72 h
# Tribolium castaneum [8] = test: Antifeedant activity against adult of Tribolium castaneum (red flour beetle) assessed as mortality at 300 ppm after 3 days relative to control; format: functional; settings: 72 h
# Sitophilus zeamais [9] = test: Antifeedant activity against adult of Sitophilus zeamais assessed as mortality at 30 ppm after 3 days relative to control; format: functional; settings: 72 h
# Sitophilus zeamais [10] = test: Antifeedant activity against adult of Sitophilus zeamais assessed as mortality at 3 ppm after 3 days relative to control; format: functional; settings: 72 h
# Tribolium castaneum [11] = test: Antifeedant activity against larvae of Tribolium castaneum (red flour beetle) assessed as efficiency of conversion of ingested food at 30 ppm after 3 days relative to control; format: functional, Instar larval stage
# Tribolium castaneum [12] = test: Antifeedant activity against larvae of Tribolium castaneum (red flour beetle) assessed as efficiency of conversion of ingested food at 10 ppm after 3 days relative to control; format: functional, Instar larval stage
# Tribolium castaneum [13] = test: Antifeedant activity against adult of Tribolium castaneum (red flour beetle) assessed as efficiency of conversion of ingested food at 300 ppm after 3 days relative to control; format: functional, Instar larval stage
# Tribolium castaneum [14] = test: Antifeedant activity against larvae of Tribolium castaneum (red flour beetle) assessed as feeding deterrence index at 300 ppm after 3 days relative to control; format: functional
# Tribolium castaneum [15] = test: Antifeedant activity against larvae of Tribolium castaneum (red flour beetle) assessed as feeding deterrence index at 30 ppm after 3 days relative to control; format: functional
# Tribolium castaneum [16] = test: Antifeedant activity against larvae of Tribolium castaneum (red flour beetle) assessed as feeding deterrence index at 3 ppm after 3 days relative to control; format: functional
# Tribolium castaneum [17] = test: Antifeedant activity against adult of Tribolium castaneum (red flour beetle) assessed as feeding deterrence index at 100 ppm after 3 days relative to control; format: functional
# Tribolium castaneum [18] = test: Antifeedant activity against adult of Tribolium castaneum (red flour beetle) assessed as feeding deterrence index at 10 ppm after 3 days relative to control; format: functional
# Sitophilus zeamais [19] = test: Antifeedant activity against adult of Sitophilus zeamais assessed as feeding deterrence index at 300 ppm after 3 days relative to control; format: functional
# Tribolium castaneum [20] = test: Antifeedant activity against adult of Tribolium castaneum (red flour beetle) assessed as feeding deterrence index at 3 ppm after 3 days relative to control; format: functional
# Sitophilus zeamais [21] = test: Antifeedant activity against adult of Sitophilus zeamais assessed as feeding deterrence index at 100 ppm after 3 days relative to control; format: functional
# Sitophilus zeamais [22] = test: Antifeedant activity against adult of Sitophilus zeamais assessed as feeding deterrence index at 10 ppm after 3 days relative to control; format: functional
# Sitophilus zeamais [23] = test: Antifeedant activity against adult of Sitophilus zeamais assessed as feeding deterrence index at 30 ppm after 3 days relative to control; format: functional
# Sitophilus zeamais [24] = test: Antifeedant activity against adult of Sitophilus zeamais assessed as feeding deterrence index at 3 ppm after 3 days relative to control; format: functional
# Tribolium castaneum [25] = test: Antifeedant activity against larvae of Tribolium castaneum (red flour beetle) assessed as mortality at 100 ppm after 3 days relative to control; format: functional; settings: 72 h
# Tribolium castaneum [26] = test: Antifeedant activity against adult of Tribolium castaneum (red flour beetle) assessed as relative growth rate at 300 ppm after 3 days relative to control; format: functional
# Sitophilus zeamais [27] = test: Antifeedant activity against adult of Sitophilus zeamais assessed as relative growth rate at 10 ppm after 3 days relative to control; format: functional
# Sitophilus zeamais [28] = test: Antifeedant activity against adult of Sitophilus zeamais assessed as relative growth rate at 30 ppm after 3 days relative to control; format: functional
# Sitophilus zeamais [29] = test: Antifeedant activity against adult of Sitophilus zeamais assessed as relative growth rate at 100 ppm after 3 days relative to control; format: functional
# Sitophilus zeamais [30] = test: Antifeedant activity against adult of Sitophilus zeamais assessed as relative growth rate at 300 ppm after 3 days relative to control; format: functional
# Tribolium castaneum [31] = test: Antifeedant activity against adult of Tribolium castaneum (red flour beetle) assessed as relative growth rate at 3 ppm after 3 days relative to control; format: functional
# Tribolium castaneum [32] = test: Antifeedant activity against adult of Tribolium castaneum (red flour beetle) assessed as relative growth rate at 10 ppm after 3 days relative to control; format: functional
# Tribolium castaneum [33] = test: Antifeedant activity against adult of Tribolium castaneum (red flour beetle) assessed as efficiency of conversion of ingested food at 100 ppm after 3 days relative to control; format: functional
# Tribolium castaneum [34] = test: Antifeedant activity against adult of Tribolium castaneum (red flour beetle) assessed as efficiency of conversion of ingested food at 30 ppm after 3 days relative to control; format: functional
# Tribolium castaneum [35] = test: Antifeedant activity against adult of Tribolium castaneum (red flour beetle) assessed as efficiency of conversion of ingested food at 10 ppm after 3 days relative to control; format: functional
# Tribolium castaneum [36] = test: Antifeedant activity against adult of Tribolium castaneum (red flour beetle) assessed as efficiency of conversion of ingested food at 3 ppm after 3 days relative to control; format: functional
# Sitophilus zeamais [37] = test: Antifeedant activity against adult of Sitophilus zeamais assessed as efficiency of conversion of ingested food at 300 ppm after 3 days relative to control; format: functional
# Tribolium castaneum [38] = test: Antifeedant activity against larvae of Tribolium castaneum (red flour beetle) assessed as relative consumption rate at 100 ppm after 3 days relative to control; format: functional
# Tribolium castaneum [39] = test: Antifeedant activity against larvae of Tribolium castaneum (red flour beetle) assessed as relative consumption rate at 300 ppm after 3 days relative to control; format: functional
# Tribolium castaneum [40] = test: Antifeedant activity against larvae of Tribolium castaneum (red flour beetle) assessed as relative consumption rate at 30 ppm after 3 days relative to control; format: functional
# Tribolium castaneum [41] = test: Antifeedant activity against larvae of Tribolium castaneum (red flour beetle) assessed as relative consumption rate at 3 ppm after 3 days relative to control; format: functional
# Tribolium castaneum [42] = test: Antifeedant activity against adult of Tribolium castaneum (red flour beetle) assessed as relative consumption rate at 100 ppm after 3 days relative to control; format: functional
# Tribolium castaneum [43] = test: Antifeedant activity against adult of Tribolium castaneum (red flour beetle) assessed as relative consumption rate at 30 ppm after 3 days relative to control; format: functional
# Tribolium castaneum [44] = test: Antifeedant activity against adult of Tribolium castaneum (red flour beetle) assessed as relative consumption rate at 3 ppm after 3 days relative to control; format: functional
# Tribolium castaneum [45] = test: Antifeedant activity against adult of Tribolium castaneum (red flour beetle) assessed as relative consumption rate at 10 ppm after 3 days relative to control; format: functional
# Sitophilus zeamais [46] = test: Antifeedant activity against adult of Sitophilus zeamais assessed as relative consumption rate at 300 ppm after 3 days relative to control; format: functional
# Sitophilus zeamais [47] = test: Antifeedant activity against adult of Sitophilus zeamais assessed as relative consumption rate at 100 ppm after 3 days relative to control; format: functional
# Tribolium castaneum [48] = test: Antifeedant activity against larvae of Tribolium castaneum (red flour beetle) assessed as relative growth rate at 10 ppm after 3 days relative to control; format: functional
compound,measurement,setting,value
CC1=C2C(=O)O[C@@H](c3ccoc3)[C@]2(C)CCC1 [FRAXINELLONE],mortality at 100 ppm,Tribolium castaneum [1],0%
same,mortality at 300 ppm,Sitophilus zeamais [2],4%
same,mortality at 100 ppm,Sitophilus zeamais [3],0%
same,mortality at 300 ppm,Tribolium castaneum [4],12%
same,mortality at 30 ppm,Tribolium castaneum [5],0%
same,mortality at 3 ppm,Tribolium castaneum [6],0%
same,mortality at 10 ppm,Tribolium castaneum [7],0%
same,mortality at 300 ppm,Tribolium castaneum [8],4%
same,mortality at 30 ppm,Sitophilus zeamais [9],2%
same,mortality at 3 ppm,Sitophilus zeamais [10],0%
same,Activity,Tribolium castaneum [11],17.81%
same,Activity,Tribolium castaneum [12],20.9%
same,Activity,Tribolium castaneum [13],10.07%
same,FDI,Tribolium castaneum [14],95.68%
same,FDI,Tribolium castaneum [15],50.33%
same,FDI,Tribolium castaneum [16],11.65%
same,FDI,Tribolium castaneum [17],69.28%
same,FDI,Tribolium castaneum [18],18.64%
same,FDI,Sitophilus zeamais [19],77.77%
same,FDI,Tribolium castaneum [20],8.46%
same,FDI,Sitophilus zeamais [21],54.09%
same,FDI,Sitophilus zeamais [22],15.68%
same,FDI,Sitophilus zeamais [23],30.76%
same,FDI,Sitophilus zeamais [24],2.92%
same,mortality at 100 ppm,Tribolium castaneum [25],0%
same,Activity,Tribolium castaneum [26],1.48 µg/mg/day
same,Activity,Sitophilus zeamais [27],13.29 µg/mg/day
same,Activity,Sitophilus zeamais [28],10.06 µg/mg/day
same,Activity,Sitophilus zeamais [29],7.05 µg/mg/day
same,Activity,Sitophilus zeamais [30],4.26 µg/mg/day
same,Activity,Tribolium castaneum [31],30.45 µg/mg/day
same,Activity,Tribolium castaneum [32],23.64 µg/mg/day
same,Activity,Tribolium castaneum [33],17.57%
same,Activity,Tribolium castaneum [34],19.1%
same,Activity,Tribolium castaneum [35],21.98%
same,Activity,Tribolium castaneum [36],21.68%
same,Activity,Sitophilus zeamais [37],6.56%
same,Activity,Tribolium castaneum [38],127.99 µg/mg/day
same,Activity,Tribolium castaneum [39],30.12 µg/mg/day
same,Activity,Tribolium castaneum [40],163.61 µg/mg/day
same,Activity,Tribolium castaneum [41],233.06 µg/mg/day
same,Activity,Tribolium castaneum [42],60.43 µg/mg/day
same,Activity,Tribolium castaneum [43],83.91 µg/mg/day
same,Activity,Tribolium castaneum [44],140.68 µg/mg/day
same,Activity,Tribolium castaneum [45],120.94 µg/mg/day
same,Activity,Sitophilus zeamais [46],35.29 µg/mg/day
same,Activity,Sitophilus zeamais [47],79.29 µg/mg/day
same,Activity,Tribolium castaneum [48],41.3 µg/mg/day
COc1c2ccccc2nc2occc12 [DICTAMNINE],mortality at 100 ppm,Tribolium castaneum [1],0%
same,mortality at 300 ppm,Sitophilus zeamais [2],0%
same,mortality at 100 ppm,Sitophilus zeamais [3],0%
same,mortality at 300 ppm,Tribolium castaneum [4],4%
same,mortality at 30 ppm,Tribolium castaneum [5],0%
same,mortality at 3 ppm,Tribolium castaneum [6],0%
same,mortality at 10 ppm,Tribolium castaneum [7],0%
same,mortality at 300 ppm,Tribolium castaneum [8],2%
same,mortality at 30 ppm,Sitophilus zeamais [9],0%
same,mortality at 3 ppm,Sitophilus zeamais [10],0%
same,Activity,Tribolium castaneum [11],20.53%
same,Activity,Tribolium castaneum [12],18.07%
same,Activity,Tribolium castaneum [13],13.81%
same,FDI,Tribolium castaneum [14],82.21%
same,FDI,Tribolium castaneum [15],38.52%
same,FDI,Tribolium castaneum [16],4.59%
same,FDI,Tribolium castaneum [17],59.58%
same,FDI,Tribolium castaneum [18],17.06%
same,FDI,Sitophilus zeamais [19],68.04%
same,FDI,Tribolium castaneum [20],7.31%
same,FDI,Sitophilus zeamais [21],51.77%
same,FDI,Sitophilus zeamais [22],17.87%
same,FDI,Sitophilus zeamais [23],30.99%
same,FDI,Sitophilus zeamais [24],9.69%
same,mortality at 100 ppm,Tribolium castaneum [25],0%
same,Activity,Tribolium castaneum [26],6.45 µg/mg/day
same,Activity,Sitophilus zeamais [27],14.32 µg/mg/day
same,Activity,Sitophilus zeamais [28],12.08 µg/mg/day
same,Activity,Sitophilus zeamais [29],9.49 µg/mg/day
same,Activity,Sitophilus zeamais [30],3.21 µg/mg/day
same,Activity,Tribolium castaneum [31],29.56 µg/mg/day
same,Activity,Tribolium castaneum [32],27.3 µg/mg/day
same,Activity,Tribolium castaneum [33],17.88%
same,Activity,Tribolium castaneum [34],18.35%
same,Activity,Tribolium castaneum [35],19.91%
same,Activity,Tribolium castaneum [36],21.25%
same,Activity,Sitophilus zeamais [37],6.81%
same,Activity,Tribolium castaneum [38],123.74 µg/mg/day
same,Activity,Tribolium castaneum [39],84.83 µg/mg/day
same,Activity,Tribolium castaneum [40],168.23 µg/mg/day
same,Activity,Tribolium castaneum [41],254.2 µg/mg/day
same,Activity,Tribolium castaneum [42],59.8 µg/mg/day
same,Activity,Tribolium castaneum [43],101.27 µg/mg/day
same,Activity,Tribolium castaneum [44],132.89 µg/mg/day
same,Activity,Tribolium castaneum [45],129.71 µg/mg/day
same,Activity,Sitophilus zeamais [46],35.13 µg/mg/day
same,Activity,Sitophilus zeamais [47],52.65 µg/mg/day
same,Activity,Tribolium castaneum [48],47.56 µg/mg/day
